# Assay results: patent US10206893B2, “Immunoregulatory agents” (Flexus Biosciences, Inc., priority 2014, dated 2019)
# pIC50: −log10 of the molar value.
# Legend:
# [1] = molecular target: T1, indoleamine 2,3-dioxygenase (IDO) (Homo sapiens, UniProt P14902); assay: HeLa cell-based indoleamine 2,3-dioxygenase (IDO) assay (IFNγ-induced kynurenine production); conditions: Tables 3-7; compounds shown only as drawings; read-out: Potency (IDO IC50)
# T1 construct: host or cells: HeLa cells, IDO induced with IFNγ (25 ng/mL)
# Description: Assessment of inhibitor activity in HeLa cell-based indoleamine 2,3-dioxygenase (IDO) assay.
# HeLa (ATCC® CCL-2) cells were obtained from the ATCC® and cultured in Dulbecco's Modified Eagle Medium supplemented with 4.5 g/L glucose, […] (#10-013-CV, Corning), 2 mM L-alanyl-L-glutamine dipeptide (#35050-061, Gibco), 100 U/mL penicillin, 100 μg/mL streptomycin (#SV30010, HyClone) and 10% fetal bovine serum (#SH30071.03 HyClone). Cells were maintained in a humidified incubator at 37° C. in 5% CO2.
# IDO activity was assessed as a function of kynurenine production as follows: HeLa cells were seeded in a 96-well culture plate at a density of 5,000 cells/well and allowed to equilibrate overnight. After 24 hours, the media was aspirated and replaced with media containing IFNγ (#285-IF/CF, R&D Systems) at a final concentration of 25 ng/mL. A serial dilution of each test compound was added to the cells in a total volume of 200 μL of culture medium. After a further 48 hour incubation, 170 μL of supernatant was transferred from each well to a fresh 96-well plate. 12.1 μL of 6.1N trichloroacetic acid (#T0699, Sigma-Aldrich) was added to each well and mixed, followed by incubation at 65° C. for 20 minutes to hydrolyze N-formylkynurenine, the product of indoleamine 2,3-dioxygenase, to kynurenine. The reaction mixture was then centrifuged for 10 mins at 500×g to sediment the precipitate. 100 μL of the supernatant was transferred from each well to a fresh 96-well plate. 100 μl of 2% (w/v) p-dimethylaminobenzaldehyde (#15647-7, Sigma-Aldrich) in acetic acid (#A6283, Sigma-Aldrich) was added to each well mixed and incubated at room temperature for 20 mins. Kynurenine concentrations were determined by measuring absorbance at 480 nm and calibrating against an L-kynurenine (#K8625, Sigma-Aldrich) standard curve using a SPECTRAMAX® M2e microplate reader (Molecular Devices). The percentage activity at each inhibitor concentration was determined and IC50 values assessed using nonlinear regression.
# Activity for compounds described herein is provided in Tables 3-7, wherein potency levels are provided as follows: (Potency: IDO IC50: A<0.1 μM; B<1 μM; C<10 μM)
# human IDO1 = molecular target: T2, human IDO1 (Homo sapiens, UniProt P14902); assay: IDO inhibition assay in HEK293 cells stably expressing human IDO1 (kynurenine, Ehrlich reagent); assay type: cell-based; conditions: 20 hours incubation, read-out: HEK Human IDO-1 Bio Activity
# T2 construct: expressed in transfected cells
# Description: They were cultured in medium (DMEM with 10% FBS) containing 1 mg/ml G418 for two weeks.
# The human IDO1/HEK293 cells were seeded at 10,000 cells per 50 μL per well with RPMI/phenol red free media contains 10% FBS in a 384-well black wall clear bottom tissue culture plate (Matrix Technologies LLC) 100 nL of certain concentration of compound was then added to each well using ECHO liquid handling systems. The cells were incubated for 20 hours in 37° C. incubator with 5% CO2.
# The compound treatments were stopped by adding trichloroacetic acid (Sigma-Aldrich) to a final concentration at 0.2%. The cell plate was further incubated at 50° C. for 30 minute. The equal volume supernatant (20 μL) and 0.2% (w/v) Ehrlich reagent (4-dimethylaminobenzaldehyde, Sigma-Aldrich) in glacial acetic acid were mixed in a new clear bottom 384-well plate. This plate was then incubated at room temperature for 30 minute. The absorbance at 490 nm was measured on Envision plate reader.
# T2 sequence (P14902 whole entry): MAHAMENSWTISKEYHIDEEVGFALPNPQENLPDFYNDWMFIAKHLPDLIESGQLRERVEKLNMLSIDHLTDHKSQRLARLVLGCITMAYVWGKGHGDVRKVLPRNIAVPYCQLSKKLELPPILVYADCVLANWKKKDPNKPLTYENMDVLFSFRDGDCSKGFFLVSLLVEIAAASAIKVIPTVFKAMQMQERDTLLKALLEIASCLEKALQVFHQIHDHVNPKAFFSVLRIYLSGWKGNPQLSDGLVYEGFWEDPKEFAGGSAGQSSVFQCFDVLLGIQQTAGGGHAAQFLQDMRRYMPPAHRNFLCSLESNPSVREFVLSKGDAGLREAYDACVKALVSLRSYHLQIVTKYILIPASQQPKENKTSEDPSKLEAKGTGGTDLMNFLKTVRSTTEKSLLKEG
# T1 sequence (P14902 whole entry): as above
SMILES,pIC50 [1],pIC50 (human IDO1)
O=C(Nc1ccc(Cl)cc1)[C@H]1CC[C@@H](Cc2ccccc2)CC1,> 5.70,
O=C(Nc1ccc(Cl)cc1)[C@H]1CC[C@H](Cc2ccccc2)CC1,> 5.70,
N#Cc1ccc(NC(=O)[C@H]2CC[C@@H](Cc3ccccc3)CC2)cc1,> 5.70,
N#Cc1ccc(NC(=O)[C@H]2CC[C@H](Cc3ccccc3)CC2)cc1,> 5.70,
O=C(Nc1ccc(F)cc1)[C@H]1CC[C@@H](Cc2ccccc2)CC1,> 5.70,
O=C(Nc1ccc(F)cc1)[C@H]1CC[C@H](Cc2ccccc2)CC1,> 5.70,
COc1ccc(NC(=O)[C@H]2CC[C@@H](Cc3ccccc3)CC2)cc1,> 5.70,
COc1ccc(NC(=O)[C@H]2CC[C@H](Cc3ccccc3)CC2)cc1,> 5.70,
COc1ccc(C2CCC(CC(=O)NCc3ccccc3)CC2)cc1 (stereo not shown),> 5.70,
COc1ccc([C@H]2CC[C@@H](CC(=O)NCc3ccccc3)CC2)cc1,> 6.60,
N#Cc1ccc(C(=O)NC[C@H]2CC[C@@H](c3ccccc3)CC2)cc1,> 6.60,
O=S(=O)(NC[C@H]1CC[C@@H](c2ccccc2)CC1)c1ccc(Cl)cc1,> 6.60,
N#Cc1cccc(C(=O)NC[C@H]2CC[C@@H](c3ccccc3)CC2)c1,> 7.30,
O=C(c1ccc(Cl)cc1)N1CCC(Cc2ccccc2)CC1,> 5.70,
O=C(NC[C@H]1CC[C@@H](c2ccccc2)CC1)c1ccc(Cl)cc1,> 6.60,
O=C(c1cccc(Cl)c1)N1CCC(Cc2ccccc2)CC1,> 5.70,
O=C(NC[C@H]1CC[C@@H](c2ccccc2)CC1)c1cccc(Cl)c1,> 7.30,
O=C(NC[C@H]1CC[C@@H](c2ccccc2)CC1)c1ccc(F)cc1,> 7.30,
COc1ccc([C@H]2CC[C@@H](CCNc3ccc(Cl)cc3)CC2)cc1,> 6.60,
COc1ccc([C@H]2CC[C@H](CCNc3ccc(Cl)cc3)CC2)cc1,> 5.70,
O=C(Nc1ccc(Cl)cc1)O[C@H]1CC[C@@H](c2ccccc2)C1,> 5.70,
O=C(Nc1ccc(F)cc1)OC[C@H]1CC[C@@H](c2ccccc2)CC1,> 5.70,

SMILES,pIC50 [1],pIC50 (human IDO1)
O=C(Nc1ccc(F)cc1)N[C@H]1CC[C@H](c2ccccc2)CC1,> 7.30,
O=C(Nc1cccc(Cl)c1)N[C@H]1CC[C@@H](c2ccccc2)CC1,> 6.60,
O=C(Nc1ccc(Cl)cc1)N[C@H]1CC[C@H](c2ccccc2)CC1,> 7.30,
O=C(Cc1ccc(Cl)cc1)N[C@H]1CC[C@@H](c2ccccc2)CC1,> 5.70,
O=C(Nc1cccc(Cl)c1)N[C@H]1CC[C@H](c2ccccc2)CC1,> 7.30,
O=C(Nc1ccc(Cl)cc1)N[C@H]1CC[C@@H](c2ccccc2)CC1,> 6.60,
O=C(Cc1cccc(Cl)c1)N[C@H]1CC[C@H](c2ccccc2)CC1,> 7.30,
O=C(Nc1ccc(Cl)cc1)N1CCC(Oc2ccccc2)CC1,> 5.70,
O=C(Nc1ccc(Cl)cc1)C1CCC(Oc2ccccc2)CC1 (stereo not shown),> 6.60,
COc1ccc([C@H]2CC[C@H](NC(=O)Cc3ccc(Cl)cc3)CC2)cc1,> 6.60,
O=S(=O)(CC1CCC(c2ccnc3ccccc23)CC1)Nc1ccc(Cl)cc1 (stereo not shown),> 7.30,
COc1ccc(C2CCC(CC(Nc3ccc(F)cc3)C(F)(F)F)CC2)cc1 (stereo not shown),> 7.30,
COc1ccc(C2CCC(CC(Nc3ccc(Cl)cc3)C(F)(F)F)CC2)cc1 (stereo not shown),> 7.30,
N#Cc1ccc(CC(=O)N[C@H]2CC[C@H](c3ccccc3)CC2)cc1,> 6.60,
CC(C(=O)N[C@H]1CC[C@H](c2ccccc2)CC1)c1ccc(C#N)cc1 (stereo partly shown),> 7.30,
O=C(Cc1ccc(Cl)cc1)N[C@H]1CC[C@H](c2ccnc3ccccc32)CC1,> 6.60,
"CC(NC(=O)c1ccc(Cl)cc1)C1CCC(c2ccncc2F)CC1 (single isomer, unassigned) [Example 161a, 4-chloro-N-(1-(4-(3-fluoropyridin-4-yl)cyclohexyl)ethyl)benzamide]",,> 5.70
"CC(NC(=O)c1ccc(Cl)cc1)C1CCC(c2ccncc2F)CC1 (single isomer, unassigned) [Example 161b, 4-chloro-N-(1-(4-(3-fluoropyridin-4-yl)cyclohexyl)ethyl)benzamide]",,> 7.30
"CC(NC(=O)c1ccc(Cl)cc1)C1CCC(c2ccncc2F)CC1 (single isomer, unassigned) [Example 161c, 4-chloro-N-(1-(4-(3-fluoropyridin-4-yl)cyclohexyl)ethyl)benzamide]",,> 6.60
N#Cc1ccc(NC(=O)N[C@H]2CC[C@H](c3ccnc4ccc(F)cc43)CC2)cc1 [Example 121],,> 6.60
CCC(NC(=O)c1ccc(-c2ccccc2)cc1)[C@H]1CC[C@@H](c2cnc3ccccc3c2)CC1 (stereo partly shown) [Example 200],,> 6.60

# Other lines, results leading:
pIC50 [1],pIC50 (human IDO1),SMILES
,> 7.30,"Cc1c(C2CCC(C(C)NC(=O)c3ccc(Cl)cc3)CC2)ccnc1F (single isomer, unassigned) [Example 158b, 4-chloro-N-(1-(4-(2-fluoro-3-methylpyridin-4-yl)cyclohexyl)ethyl)benzamide]"
,> 7.30,"Cc1c(C2CCC(C(C)NC(=O)c3ccc(Cl)cc3)CC2)ccnc1F (single isomer, unassigned) [Example 158c, 4-chloro-N-(1-(4-(2-fluoro-3-methylpyridin-4-yl)cyclohexyl)ethyl)benzamide]"
,> 7.30,"Cc1c(C2CCC(C(C)NC(=O)c3ccc(Cl)cc3)CC2)ccnc1F (single isomer, unassigned) [Example 158d, 4-chloro-N-(1-(4-(2-fluoro-3-methylpyridin-4-yl)cyclohexyl)ethyl)benzamide]"
,> 5.70,"Cc1c(C2CCC(C(C)NC(=O)c3ccc(Cl)cc3)CC2)ccnc1F (single isomer, unassigned) [Example 158e, 4-chloro-N-(1-(4-(2-fluoro-3-methylpyridin-4-yl)cyclohexyl)ethyl)benzamide]"
,> 6.60,"Cc1nccc(C2CCC(C(C)NC(=O)c3ccc(Cl)cc3)CC2)c1C (single isomer, unassigned) [Example 159b, 4-chloro-N-(1-(4-(2,3-dimethylpyridin-4-yl)cyclohexyl)ethyl)benzamide]"
,> 7.30,"Cc1nccc(C2CCC(C(C)NC(=O)c3ccc(Cl)cc3)CC2)c1C (single isomer, unassigned) [Example 159c, 4-chloro-N-(1-(4-(2,3-dimethylpyridin-4-yl)cyclohexyl)ethyl)benzamide]"
,> 7.30,"Cc1nccc(C2CCC(C(C)NC(=O)c3ccc(Cl)cc3)CC2)c1C (single isomer, unassigned) [Example 159d, 4-chloro-N-(1-(4-(2,3-dimethylpyridin-4-yl)cyclohexyl)ethyl)benzamide]"
,> 5.70,"Cc1nccc(C2CCC(C(C)NC(=O)c3ccc(Cl)cc3)CC2)c1C (single isomer, unassigned) [Example 159e, 4-chloro-N-(1-(4-(2,3-dimethylpyridin-4-yl)cyclohexyl)ethyl)benzamide]"
,> 5.70,"Cc1cnccc1C1CCC(C(C)NC(=O)c2ccc(Cl)cc2)CC1 (single isomer, unassigned) [Example 160b, 4-chloro-N-(1-(4-(3-methylpyridin-4-yl)cyclohexyl)ethyl)benzamide]"
,> 5.70,"Cc1cnccc1C1CCC(C(C)NC(=O)c2ccc(Cl)cc2)CC1 (single isomer, unassigned) [Example 160c, 4-chloro-N-(1-(4-(3-methylpyridin-4-yl)cyclohexyl)ethyl)benzamide]"
,> 6.60,"Cc1cnccc1C1CCC(C(C)NC(=O)c2ccc(Cl)cc2)CC1 (single isomer, unassigned) [Example 160d, 4-chloro-N-(1-(4-(3-methylpyridin-4-yl)cyclohexyl)ethyl)benzamide]"
,> 7.30,"Cc1cnccc1C1CCC(C(C)NC(=O)c2ccc(Cl)cc2)CC1 (single isomer, unassigned) [Example 160e, 4-chloro-N-(1-(4-(3-methylpyridin-4-yl)cyclohexyl)ethyl)benzamide]"
